Test results as given in the supplement of paper PMC11061612.

Legend:
[1] = tested on: BT-549 (Breast Carcinoma); test: Bliss excess, mean over the matrix (fraction); higher = more synergy
Procedure, shortened: (§1)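 Bliss excess equals the observed combination effect minus the expected value EA + EB − EA·EB, where EA and EB are the effects of each agent alone. Combination Emax is the second-highest inhibition within the matrix. Inhibition was scaled from CellTiter-Glo 2.0 luminescence, with 0 set by vehicle wells and 1 by blank wells, after 72 hours of two-drug dosing of cells plated in 1536-well plates.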

[2] = tested on: Ca9-22 (Head and Neck Carcinoma); test: as above
Procedure, shortened: as §1

UACC-62 (Melanoma) = test: as above
Procedure, shortened: as §1

[3] = tested on: KYSE-450 (Esophageal Squamous Cell Carcinoma); test: as above
Procedure, shortened: as §1

[4] = tested on: NCI-H727 (Other Solid Carcinomas); test: as above
Procedure, shortened: as §1

[5] = tested on: LU-65 (Non-Small Cell Lung Carcinoma); test: as above
Procedure, shortened: as §1

[6] = tested on: PANC-04-03 (Pancreatic Carcinoma); test: as above
Procedure, shortened: as §1

[7] = tested on: NCI-H358 (Lung Adenocarcinoma); test: as above
Procedure, shortened: as §1

NB69 (Neuroblastoma) [8] = test: as above
Procedure, shortened: as §1

[9] = tested on: EFM-19 (Breast Carcinoma); test: as above
Procedure, shortened: as §1

TGW (Neuroblastoma) = test: as above
Procedure, shortened: as §1

D-263MG (Glioblastoma) = test: as above
Procedure, shortened: as §1

YH-13 (Glioblastoma) = test: as above
Procedure, shortened: as §1

[10] = tested on: AMO-1 (Plasma Cell Myeloma); test: as above
Procedure, shortened: as §1

EW-24 (Ewing's Sarcoma) = test: as above
Procedure, shortened: as §1

[11] = tested on: Ca9-22 (Head and Neck Carcinoma); test: combination Emax (second highest fraction inhibited in the dose matrix, 72 h); higher = more inhibition; extreme values may be limits of the assay
Procedure, shortened: as §1

[12] = tested on: SW13 (Other Solid Carcinomas); test: as above
Procedure, shortened: as §1

NB69 (Neuroblastoma) [13] = test: as above
Procedure, shortened: as §1

[14] = tested on: Caov-4 (Ovarian Carcinoma); test: as above
Procedure, shortened: as §1

[15] = tested on: EoL-1-cell (Acute Myeloid Leukemia); test: as above
Procedure, shortened: as §1

Row | Structure (SMILES) | Bliss excess [1] | Bliss excess [2] | Bliss excess (UACC-62 (Melanoma)) | Bliss excess [3] | Bliss excess [4] | Bliss excess [5] | Bliss excess [6] | Bliss excess [7] | Bliss excess (NB69 (Neuroblastoma) [8]) | Bliss excess [9] | Bliss excess (TGW (Neuroblastoma)) | Bliss excess (D-263MG (Glioblastoma)) | Bliss excess (YH-13 (Glioblastoma)) | Bliss excess [10] | Bliss excess (EW-24 (Ewing's Sarcoma)) | combination Emax [11] | combination Emax [12] | combination Emax (NB69 (Neuroblastoma) [13]) | combination Emax [14] | combination Emax [15]
1 | Cc1cc2ncnn2cc1Nc1ncc2c(n1)n(C1CCOCC1)c(=O)n2C [AZD7648] + COc1cc([C@@H]2c3cc4c(cc3[C@@H](O[C@@H]3O[C@@H]5CO[C@@H](C)O[C@H]5[C@H](O)[C@H]3O)[C@H]3COC(=O)[C@H]23)OCO4)cc(OC)c1O [Etoposide] (first compound max 10 µM, 7x7, partner max 10 µM) | 0.0306 | 0.141 | 0.045 | 0.0385 | -0.0041 | 0.0212 | 0.017 | -0.0079 | -0.0239 | -0.0295 | 0.0615 | 0.0729 | 0.0877 | 0.138 | 0.0463 | 0.869 | 0.86 | 0.946 | 0.744 | 1
2 | C[C@@H](c1ccc2nccn2c1)n1nnc2ncc(-c3cnn(C)c3)nc21 [Savolitinib] + Cc1c2c(nn1C)CSCc1cc(n(C)n1)CSc1cc(c3ccccc3c1)OCCCc1c(C(=O)O)n(C)c3c-2c(Cl)ccc13 [AZD5991] (first compound max 1 µM, 7x7, partner max 1 µM) | -0.0229 | -0.01 | 0.0285 | -0.0186 | -0.0099 | -0.0437 | -0.0216 | -0.0538 | -0.0122 | -0.0236 | -0.0467 | -0.0571 | 0.023 | 0.0251 | -0.0237 | 0.143 | 0.735 | 0.74 | 0.421 | 1
3 | CN(CCO)CC[C@H](CSc1ccccc1)Nc1ccc(S(=O)(=O)NC(=O)c2ccc(N3CCC([C@@H](O)c4ccccc4-c4ccc(Cl)cc4)CC3)cc2)cc1S(=O)(=O)C(F)(F)F [AZD4320] + C1CN(CCC1(C(=O)N[C@@H](CCO)C2=CC=C(C=C2)Cl)N)C3=NC=NC4=C3C=CN4 [Capivasertib] (first compound max 1 µM, 7x7, partner max 3 µM) | -0.0094 | -0.0055 | -0.0584 | -0.0449 | -0.0891 | -0.0108 | -0.0875 | -0.0172 | -0.0554 | -0.0292 | 0.0065 | -0.0512 | -0.0491 | -0.0045 | -0.0378 | 0.301 | 0.138 | 0.652 | 0.131 | 1
4 | CN(CCO)CC[C@H](CSc1ccccc1)Nc1ccc(S(=O)(=O)NC(=O)c2ccc(N3CCC([C@@H](O)c4ccccc4-c4ccc(Cl)cc4)CC3)cc2)cc1S(=O)(=O)C(F)(F)F [AZD4320] + CCN(CCO)CCCOc1ccc2c(Nc3cc(CC(=O)Nc4cccc(F)c4)[nH]n3)ncnc2c1 [AZD2811] (first compound max 1 µM, 7x7, partner max 1 µM) | 0.0218 | 0.0591 | 0.0105 | -0.0273 | -0.0221 | -0.0437 | -0.0435 | -0.0337 | -0.0077 | 0.147 | -0.032 | 0.0665 | 0.0819 | -0.0102 | 0.0538 | 0.572 | 0.378 | 0.902 | 0.448 | 1
5 | N#Cc1cnc(Nc2cc(NC[C@H]3CNCCO3)c(C(F)(F)F)cn2)cn1 [SRA737] + Nc1ccn([C@@H]2O[C@H](CO)[C@@H](O)C2(F)F)c(=O)n1 [Gemcitabine] (first compound max 10 µM, 7x7, partner max 0.3 µM) | -0.0532 | 0.122 | 0.019 | 0.114 | -0.0046 | 0.0224 | -0.0036 | -0.0054 | 0.0366 | 0.0489 | -0.0301 | 0.0556 | 0.0032 | 0.0377 | -0.0984 | 0.867 | 0.944 | 0.983 | 0.856 | 1
6 | CN(CCO)CC[C@H](CSc1ccccc1)Nc1ccc(S(=O)(=O)NC(=O)c2ccc(N3CCC([C@@H](O)c4ccccc4-c4ccc(Cl)cc4)CC3)cc2)cc1S(=O)(=O)C(F)(F)F [AZD4320] + CC(=O)O[C@H]1C(=O)[C@@]2(C)[C@H]([C@H](OC(=O)c3ccccc3)[C@]3(O)C[C@H](OC(=O)[C@H](O)[C@@H](NC(=O)c4ccccc4)c4ccccc4)C(C)=C1C3(C)C)[C@]1(OC(C)=O)CO[C@@H]1C[C@@H]2O [Paclitaxel] (first compound max 1 µM, 7x7, partner max 3 µM) | 0.0578 | 0.037 | 0.0953 | 0.0129 | 0.101 | 0.0224 | -0.0033 | 0.0117 | 0.0148 | 0.0898 | -0.0472 | 0.102 | 0.0619 | 0.0173 | 0.17 | 0.997 | 1 | 1 | 0.795 | 1
